For test [1], the target named is Coagulation factor X (Homo sapiens) (UniProt P00742). Description: Binding affinity as apparent association constant for human coagulation factor X.
The target in test [2] is Thrombin and coagulation factor X (Homo sapiens) (UniProt P00734+P00742). Description: Anticoagulant potency against double prothrombin time. Type of test: functional.
Test [3] concerns the target Plasminogen (Homo sapiens) (UniProt P00747). Description: Binding affinity as apparent association constant for Plasmin.
Test [4] deals with Serine protease 1 (Homo sapiens) (UniProt P07477). In words: Binding affinity as apparent association constant for Trypsin.
Chain of Serine protease 1 (Homo sapiens) (P07477 whole entry): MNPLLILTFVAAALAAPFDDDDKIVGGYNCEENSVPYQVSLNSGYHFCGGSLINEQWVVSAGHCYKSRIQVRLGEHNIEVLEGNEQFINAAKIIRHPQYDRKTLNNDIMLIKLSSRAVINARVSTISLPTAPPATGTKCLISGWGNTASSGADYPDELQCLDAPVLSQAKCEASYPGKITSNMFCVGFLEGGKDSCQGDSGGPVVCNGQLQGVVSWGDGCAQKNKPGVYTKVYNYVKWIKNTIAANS
Test [5] addresses Urokinase-type plasminogen activator (Homo sapiens) (UniProt P00749). In words: Binding affinity as apparent association constant for Urokinase.
Test [6] addresses Prothrombin (Homo sapiens) (UniProt P00734). In words: Binding affinity as apparent association constant for Coagulation factor II.
For test [7], the target named is Tissue-type plasminogen activator (Homo sapiens) (UniProt P00750). Description: Binding affinity as apparent association constant for Tissue plasminogen activator.
Chain of Tissue-type plasminogen activator (Homo sapiens) (P00750 36-562 limits assumed): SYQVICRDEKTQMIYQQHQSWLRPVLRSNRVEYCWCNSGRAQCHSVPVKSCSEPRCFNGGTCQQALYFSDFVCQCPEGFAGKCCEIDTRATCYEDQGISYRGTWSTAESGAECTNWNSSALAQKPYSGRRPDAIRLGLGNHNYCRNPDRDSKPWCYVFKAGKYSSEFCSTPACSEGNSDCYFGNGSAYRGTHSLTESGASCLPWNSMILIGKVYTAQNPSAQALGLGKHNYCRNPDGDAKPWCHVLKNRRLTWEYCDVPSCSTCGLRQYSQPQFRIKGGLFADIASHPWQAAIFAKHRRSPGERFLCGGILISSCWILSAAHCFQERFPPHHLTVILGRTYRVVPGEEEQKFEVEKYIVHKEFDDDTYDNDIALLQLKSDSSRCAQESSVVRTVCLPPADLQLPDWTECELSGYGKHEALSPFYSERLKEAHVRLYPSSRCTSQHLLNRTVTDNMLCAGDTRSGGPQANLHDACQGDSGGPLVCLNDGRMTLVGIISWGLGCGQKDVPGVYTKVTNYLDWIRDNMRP

Chain of Thrombin and coagulation factor X (Homo sapiens) (P00742 whole entry, looked up, other chains not shown): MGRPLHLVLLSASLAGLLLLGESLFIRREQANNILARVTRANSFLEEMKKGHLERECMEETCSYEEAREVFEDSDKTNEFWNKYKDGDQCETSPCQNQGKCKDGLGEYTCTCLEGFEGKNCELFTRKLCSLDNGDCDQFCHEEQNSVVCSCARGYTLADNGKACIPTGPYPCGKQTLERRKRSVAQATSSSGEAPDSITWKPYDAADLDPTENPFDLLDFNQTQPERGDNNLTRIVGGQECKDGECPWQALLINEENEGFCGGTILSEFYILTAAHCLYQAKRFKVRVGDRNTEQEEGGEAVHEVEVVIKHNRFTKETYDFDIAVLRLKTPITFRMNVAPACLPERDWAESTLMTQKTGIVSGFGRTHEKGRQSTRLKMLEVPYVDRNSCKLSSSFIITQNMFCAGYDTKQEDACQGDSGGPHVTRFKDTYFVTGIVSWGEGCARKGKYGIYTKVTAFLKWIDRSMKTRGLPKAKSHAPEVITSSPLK
Chain of Coagulation factor X (Homo sapiens) (P00742 41-179 limits assumed): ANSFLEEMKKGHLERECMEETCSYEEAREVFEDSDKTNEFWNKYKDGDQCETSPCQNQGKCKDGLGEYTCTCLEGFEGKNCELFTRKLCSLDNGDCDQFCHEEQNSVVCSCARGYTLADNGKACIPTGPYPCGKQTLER
Chain of Coagulation factor X (Homo sapiens) (P00742 235-488 limits assumed): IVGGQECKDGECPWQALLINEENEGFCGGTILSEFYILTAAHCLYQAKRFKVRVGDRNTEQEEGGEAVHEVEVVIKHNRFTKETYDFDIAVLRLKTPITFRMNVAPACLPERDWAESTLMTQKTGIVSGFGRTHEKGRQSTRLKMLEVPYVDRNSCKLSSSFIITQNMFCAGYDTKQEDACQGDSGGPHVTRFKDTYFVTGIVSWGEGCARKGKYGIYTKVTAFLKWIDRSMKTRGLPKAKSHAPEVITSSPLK
Chain of Plasminogen (Homo sapiens) (P00747 97-580 limits assumed): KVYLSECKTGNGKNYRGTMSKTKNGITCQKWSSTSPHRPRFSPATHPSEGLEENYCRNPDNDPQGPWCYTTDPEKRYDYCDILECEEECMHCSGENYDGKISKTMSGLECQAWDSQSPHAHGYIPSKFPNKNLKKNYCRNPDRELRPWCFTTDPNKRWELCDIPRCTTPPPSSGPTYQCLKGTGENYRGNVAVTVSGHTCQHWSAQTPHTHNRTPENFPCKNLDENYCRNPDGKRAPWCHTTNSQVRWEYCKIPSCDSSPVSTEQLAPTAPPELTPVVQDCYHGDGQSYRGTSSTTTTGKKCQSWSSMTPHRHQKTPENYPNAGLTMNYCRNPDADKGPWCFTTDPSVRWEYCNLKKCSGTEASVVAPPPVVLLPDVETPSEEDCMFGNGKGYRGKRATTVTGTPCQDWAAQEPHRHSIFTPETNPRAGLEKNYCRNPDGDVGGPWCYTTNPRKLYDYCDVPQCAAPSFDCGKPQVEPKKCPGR
Chain of Plasminogen (Homo sapiens) (P00747 581-810 limits assumed): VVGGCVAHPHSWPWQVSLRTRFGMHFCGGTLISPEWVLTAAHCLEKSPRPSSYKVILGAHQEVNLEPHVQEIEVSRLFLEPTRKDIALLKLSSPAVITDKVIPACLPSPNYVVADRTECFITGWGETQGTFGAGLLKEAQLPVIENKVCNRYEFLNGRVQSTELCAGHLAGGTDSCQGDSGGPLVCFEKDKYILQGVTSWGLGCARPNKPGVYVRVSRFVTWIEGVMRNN

Consider `Cc1cccc(C(=O)Nc2ccccc2NC(=O)OCC2CCN(c3ccncc3)CC2)c1`, for which the K ass in test [1] is 5.9e+06 L/mol.
For the compound `COc1ccc(C(=O)Nc2ccccc2NC(=O)OCC2CCN(c3ccncc3)CC2)cc1F`, in test [2], the PT is 1.1 µM. Besides, the K ass in test [1] is 46 L/mol.
On to `COc1ccc(C(=O)Nc2ccccc2NC(=O)c2ccc(C(C)(C)C)cc2)cc1`, for which the PT in test [2] is > 50 µM. The K ass in test [1] amounted to 7e+06 L/mol.
The like results for `O=C(Nc1ccccc1NC(=O)c1cccc(Cl)c1)OCC1CCN(c2ccncc2)CC1` were, in that order, 12 µM and 4.1e+06 L/mol.
Take `COc1ccccc1C(=O)Nc1ccccc1NC(=O)OCC1CCN(c2ccncc2)CC1`: the K ass in test [1] is 20000 L/mol.
With `O=C(Nc1ccccc1NC(=O)c1ccccc1Cl)OCC1CCN(c2ccncc2)CC1`, the K ass in test [1] came to 300000 L/mol.
Same read-out and setting: then `O=C(Nc1ccccc1NC(=O)c1cccc(O)c1)OCC1CCN(c2ccncc2)CC1`, with 1e+06 L/mol.
In the case of `COc1ccc(C(=O)Nc2ccccc2NC(=O)C2CCN(c3ccncc3)CC2)cc1`, the PT in test [2] was 9.7 µM. Moreover, in test [1], the K ass amounted to 2e+06 L/mol.
In the case of `O=C(Nc1ccccc1NC(=O)C1=CCCCC1)OCC1CCN(c2ccncc2)CC1`, in test [1], the K ass came to 900000 L/mol.
`O=C(Nc1ccccc1NC(=O)c1ccccc1)OCC1CCN(c2ccncc2)CC1`: in test [1], the K ass was 1.6e+06 L/mol.
In test [2], `COc1ccc(C(=O)Nc2ccccc2NC(=O)OCC2CCN(c3ccncc3)CC2)cc1` showed a PT of 1.9 µM. Also, the K ass in test [1] was determined as 1.9e+07 L/mol.
`Nc1cccc(C(=O)Nc2ccccc2NC(=O)OCC2CCN(c3ccncc3)CC2)c1` displayed a PT in test [2] of 8 µM. The K ass in test [1] came out at 5.1e+06 L/mol.
`O=C(Nc1ccccc1NC(=O)C1CCCCC1)OCC1CCN(c2ccncc2)CC1`: in test [1], the K ass amounted to 40000 L/mol.
The compound `O=C(Nc1ccccc1NC(=O)c1ccc(Cl)s1)OCC1CCN(c2ccncc2)CC1` returned a PT in test [2] of 2.6 µM. The K ass in test [1] was 3.3e+07 L/mol.
For `O=C(Nc1ccccc1NC(=O)c1ccc(Br)cc1)OCC1CCN(c2ccncc2)CC1`, in that order: 1.8 µM and 3.8e+07 L/mol.
In the case of `Cc1ccc(C(=O)Nc2ccccc2NC(=O)OCC2CCN(c3ccncc3)CC2)cc1`, the PT in test [2] came out at 8 µM. Moreover, in test [1], the K ass was 6.3e+06 L/mol.
For `O=C(Nc1ccccc1NC(=O)c1ccc(I)cc1)OCC1CCN(c2ccncc2)CC1`, in that order: 6 µM and 1.4e+07 L/mol.
For the compound `O=C(Nc1ccccc1NC(=O)c1ccc(F)cc1)OCC1CCN(c2ccncc2)CC1`, in test [1], the K ass came to 4.6e+06 L/mol.
Turning to `O=C(Nc1ccccc1NC(=O)C1=CCCC1)OCC1CCN(c2ccncc2)CC1`, in test [1], the K ass is 700000 L/mol.
`CC(C)(C)c1ccc(C(=O)Nc2ccccc2NC(=O)c2cccc(C(=N)N)c2)cc1` gave a PT in test [2] of 0.9 µM. Also, the K ass in test [1] was determined as 2.42e+08 L/mol.
Turning to `O=C(Nc1ccccc1NC(=O)C1C=CCCC1)OCC1CCN(c2ccncc2)CC1` (stereo unspecified), the K ass in test [1] is 200000 L/mol.
For the compound `O=C(Nc1ccccc1NC(=O)c1ccc(Cl)o1)OCC1CCN(c2ccncc2)CC1`, the K ass in test [1] was determined as 700000 L/mol.
Same read-out and setting: then `O=C(Nc1ccccc1NC(=O)c1ccc2c(c1)CCO2)OCC1CCN(c2ccncc2)CC1`, with 600000 L/mol.
As for `Cc1ccc(C(=O)Nc2ccccc2NC(=O)OCC2CCN(c3ccncc3)CC2)cc1Cl`, the PT in test [2] worked out at 22 µM. Also, the K ass in test [1] worked out at 2.3e+06 L/mol.
For `O=C(Nc1ccccc1NC(=O)c1cccc(F)c1)OCC1CCN(c2ccncc2)CC1`, in that order: 17 µM and 2.5e+06 L/mol.
For `N#Cc1ccc(C(=O)Nc2ccccc2NC(=O)OCC2CCN(c3ccncc3)CC2)cc1`, the K ass in test [1] came out at 600000 L/mol.
In test [2], `Cc1ccc(C(=O)Nc2ccccc2NC(=O)OCC2CCN(c3ccncc3)CC2)cc1F` registered a PT of 7 µM. Besides, the K ass in test [1] worked out at 5.8e+06 L/mol.
`O=C(Nc1ccccc1NC(=O)c1cccc(Cl)c1Cl)OCC1CCN(c2ccncc2)CC1`: in test [2], the PT turned out to be 5 µM. Moreover, the K ass in test [1] amounted to 1.9e+07 L/mol.
The like results for `O=C(Nc1ccccc1NC(=O)c1ccc2cc[nH]c2c1)OCC1CCN(c2ccncc2)CC1` were, in that order, 1.6 µM and 5.4e+07 L/mol.
Consider `COc1cccc(C(=O)Nc2ccccc2NC(=O)OCC2CCN(c3ccncc3)CC2)c1`, for which, in test [2], the PT is 10 µM. Further, the K ass in test [1] is 3.3e+06 L/mol.
In test [2], `O=C(Nc1ccccc1NC(=O)c1ccc(OC(F)F)cc1)OCC1CCN(c2ccncc2)CC1` came in with a PT of 6 µM. In addition, the K ass in test [1] is 5e+06 L/mol.
For `O=C(Nc1ccccc1NC(=O)c1ccc(Cl)cc1)OCC1CCN(c2ccncc2)CC1`, the Ka in test [3] was < 10000 L/mol; in test [4], < 10000 L/mol; in test [5], < 10000 L/mol; in test [6], 20000 L/mol; in test [7], < 10000 L/mol. In test [2], the PT was found to be 1.9 µM. The K ass in test [1] came to 3.5e+07 L/mol.
